Results on seven molecules are retold here after ChEMBL document CHEMBL1131247, “Substituted naphthofurans as hallucinogenic phenethylamine-ergoline hybrid molecules with unexpected muscarinic antagonist activity” (J Med Chem, 1998).

Assay [1] deals with 5-hydroxytryptamine receptor 2A (Rattus norvegicus, UniProt P14842). The experiment in a line: Affinity at [3H]ketanserin-labeled 5-hydroxytryptamine 2A receptor in rat brain homogenate was determined. In kind it is tissue-based.
In assay [2] the target is Muscarinic acetylcholine receptor M3 (Rattus norvegicus) (UniProt P08483).
Assay [3] deals with T1, Muscarinic acetylcholine receptor M2 (Rattus norvegicus) (UniProt P10980).
T1 sequence (whole entry): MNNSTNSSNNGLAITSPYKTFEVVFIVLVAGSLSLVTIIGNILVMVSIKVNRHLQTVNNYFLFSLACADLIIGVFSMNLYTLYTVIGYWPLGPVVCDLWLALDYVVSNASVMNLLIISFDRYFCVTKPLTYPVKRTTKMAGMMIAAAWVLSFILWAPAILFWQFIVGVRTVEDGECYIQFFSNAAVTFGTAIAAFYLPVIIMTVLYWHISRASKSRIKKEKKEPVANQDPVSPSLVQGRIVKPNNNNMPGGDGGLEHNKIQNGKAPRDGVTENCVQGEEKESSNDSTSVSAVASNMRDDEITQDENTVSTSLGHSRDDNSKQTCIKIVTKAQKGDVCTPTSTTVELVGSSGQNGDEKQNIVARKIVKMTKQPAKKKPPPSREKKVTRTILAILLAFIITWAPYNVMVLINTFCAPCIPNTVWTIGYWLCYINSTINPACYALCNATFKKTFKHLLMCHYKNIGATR

Assay [4] concerns the target T2, Muscarinic acetylcholine receptor M5 (Rattus norvegicus) (UniProt P08911).
T2 sequence (whole entry): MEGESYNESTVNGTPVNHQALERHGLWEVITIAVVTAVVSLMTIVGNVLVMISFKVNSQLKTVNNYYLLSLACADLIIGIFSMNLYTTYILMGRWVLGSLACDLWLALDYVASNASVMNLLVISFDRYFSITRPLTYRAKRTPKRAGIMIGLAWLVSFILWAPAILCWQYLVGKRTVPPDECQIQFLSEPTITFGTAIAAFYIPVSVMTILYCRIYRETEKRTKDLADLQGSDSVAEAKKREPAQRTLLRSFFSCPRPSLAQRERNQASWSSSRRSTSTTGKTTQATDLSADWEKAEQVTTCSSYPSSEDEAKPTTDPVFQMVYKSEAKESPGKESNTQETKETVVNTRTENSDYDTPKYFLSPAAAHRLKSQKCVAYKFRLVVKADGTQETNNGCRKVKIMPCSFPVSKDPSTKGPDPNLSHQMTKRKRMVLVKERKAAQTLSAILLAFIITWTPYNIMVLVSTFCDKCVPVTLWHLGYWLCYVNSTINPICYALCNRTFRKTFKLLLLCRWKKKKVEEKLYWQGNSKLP

The target of assay [5] is T3, 5-hydroxytryptamine receptor 1A (Rattus norvegicus, UniProt P19327).
T3 sequence (P19327 whole entry): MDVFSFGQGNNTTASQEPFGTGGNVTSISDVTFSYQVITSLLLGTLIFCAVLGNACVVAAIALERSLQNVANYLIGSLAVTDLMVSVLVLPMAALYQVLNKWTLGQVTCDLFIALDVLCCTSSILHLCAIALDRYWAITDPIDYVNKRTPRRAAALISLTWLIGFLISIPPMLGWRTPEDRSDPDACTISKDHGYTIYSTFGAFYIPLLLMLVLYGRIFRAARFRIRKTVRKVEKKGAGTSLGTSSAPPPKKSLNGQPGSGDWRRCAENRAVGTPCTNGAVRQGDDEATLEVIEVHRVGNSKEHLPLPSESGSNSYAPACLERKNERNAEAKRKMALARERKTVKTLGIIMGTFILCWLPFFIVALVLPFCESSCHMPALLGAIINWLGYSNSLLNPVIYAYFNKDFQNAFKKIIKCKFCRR
Kind of assay: Affinity at [3H]8-OH-DPAT-labeled 5-hydroxytryptamine 1A receptor in rat brain homogenate was determined. In kind it is tissue-based.

In assay [6] the target is T4, Muscarinic acetylcholine receptor M4 (Rattus norvegicus) (UniProt P08485).
T4 sequence (whole entry): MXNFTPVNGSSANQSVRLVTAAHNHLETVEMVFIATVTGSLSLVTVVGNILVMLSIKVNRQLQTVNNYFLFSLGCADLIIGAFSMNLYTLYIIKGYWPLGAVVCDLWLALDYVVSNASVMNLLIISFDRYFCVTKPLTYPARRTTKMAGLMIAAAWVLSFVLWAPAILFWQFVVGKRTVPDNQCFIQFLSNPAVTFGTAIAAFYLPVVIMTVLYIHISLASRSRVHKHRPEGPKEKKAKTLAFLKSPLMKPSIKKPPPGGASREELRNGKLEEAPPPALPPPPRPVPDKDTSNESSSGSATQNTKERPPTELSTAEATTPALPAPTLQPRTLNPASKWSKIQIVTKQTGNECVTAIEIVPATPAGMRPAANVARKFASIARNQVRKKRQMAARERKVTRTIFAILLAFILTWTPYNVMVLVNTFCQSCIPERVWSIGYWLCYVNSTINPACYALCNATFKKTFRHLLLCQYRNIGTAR

For assay [7], the target named is T5, Muscarinic acetylcholine receptor M1 (Mus musculus) (UniProt P12657).
T5 sequence (whole entry): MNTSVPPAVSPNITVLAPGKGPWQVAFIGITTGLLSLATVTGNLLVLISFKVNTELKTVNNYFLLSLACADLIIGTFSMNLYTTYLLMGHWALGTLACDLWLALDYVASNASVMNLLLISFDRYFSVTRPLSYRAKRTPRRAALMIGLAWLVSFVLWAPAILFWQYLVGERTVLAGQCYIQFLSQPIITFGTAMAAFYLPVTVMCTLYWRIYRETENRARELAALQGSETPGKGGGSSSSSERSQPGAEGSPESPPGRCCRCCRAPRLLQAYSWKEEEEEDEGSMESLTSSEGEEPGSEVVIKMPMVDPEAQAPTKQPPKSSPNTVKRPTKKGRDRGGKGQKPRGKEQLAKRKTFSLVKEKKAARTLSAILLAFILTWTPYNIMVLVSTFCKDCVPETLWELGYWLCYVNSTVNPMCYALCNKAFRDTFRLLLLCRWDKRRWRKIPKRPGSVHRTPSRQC

Assay [8] deals with T6, 5-hydroxytryptamine receptor 2A (Homo sapiens, UniProt P28223). Kind of assay: Binding ability of compound at cloned human 5-hydroxytryptamine 2A receptor using [125 I]DOI as radioligand.
Assay [9] deals with Rattus norvegicus. Kind of assay: Percentage of animals failing to emit 50 presses on either lever within the 15-min test period in rat at 2.92 mg/kg (8 umol/kg). In kind it is functional.
Assay [10] has as its system Rattus norvegicus. Kind of assay: Percentage of animals failing to emit 50 presses on either lever within the 15-min test period in rat at 5.84 mg/kg (16 umol/kg). In kind it is functional.
Assay [11] has as its target T7, 5-hydroxytryptamine receptor 2C (Homo sapiens, UniProt P28335).
T7 sequence (P28335 whole entry): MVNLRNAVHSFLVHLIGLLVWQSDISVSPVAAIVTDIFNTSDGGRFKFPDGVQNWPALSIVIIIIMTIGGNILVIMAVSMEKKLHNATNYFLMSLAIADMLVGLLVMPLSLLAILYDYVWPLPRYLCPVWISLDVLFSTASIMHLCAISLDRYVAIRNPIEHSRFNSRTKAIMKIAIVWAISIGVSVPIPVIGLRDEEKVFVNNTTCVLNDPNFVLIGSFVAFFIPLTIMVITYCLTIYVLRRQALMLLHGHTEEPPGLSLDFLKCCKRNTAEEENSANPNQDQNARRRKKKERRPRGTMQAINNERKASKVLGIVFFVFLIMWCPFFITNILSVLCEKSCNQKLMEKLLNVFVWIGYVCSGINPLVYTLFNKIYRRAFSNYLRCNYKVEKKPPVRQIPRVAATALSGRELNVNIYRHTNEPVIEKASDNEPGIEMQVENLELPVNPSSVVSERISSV
The experiment in a line: Binding ability of compound at cloned human 5-hydroxytryptamine 2C receptor using [125 I]DOI as radioligand.

Assay [12] deals with T8, 5-hydroxytryptamine receptor 2B (Homo sapiens, UniProt P41595). The experiment in a line: Binding ability of compound at cloned human 5-hydroxytryptamine 2B receptor using [3H]5-HT 2B as radioligand.
The species entered for assay [13] is Rattus norvegicus. The experiment in a line: (§1) Effective dose for LSD-like behavioral effect in rats; Not significant. In kind it is functional, organism-based.
Assay [14] deals with Rattus norvegicus. Kind of assay: Percentage of animals emitting 50 presses on the LSD appropriate lever during the test period in rat at 5.84 mg/kg (16 umol/kg). In kind it is functional.
Assay [15] addresses T8, 5-hydroxytryptamine receptor 2B. The experiment in a line: Binding ability of compound at cloned human 5-hydroxytryptamine 2B receptor using [3H]- rauwolscine as radioligand.
Assay [16] has as its target T6, 5-hydroxytryptamine receptor 2A. The experiment in a line: Binding ability of compound at cloned human 5-hydroxytryptamine 2A receptor using [3H]ketanserin as radioligand.
Assay [17] has as its system Rattus norvegicus. Kind of assay: Percentage of animals failing to emit 50 presses on either lever within the 15-min test period in rat at 1.46 mg/kg (4 umol/kg). In kind it is functional.
Assay [18] relates to Rattus norvegicus. The experiment in a line: Percentage of animals failing to emit 50 presses on either lever within the 15-min test period in rat at 0.78 mg/kg(2 uM/kg). In kind it is functional.
The test system of assay [19] is Rattus norvegicus. Kind of assay: Percentage of animals emitting 50 presses on the LSD appropriate lever during the test period in rat at 1.46 mg/kg (4 umol/kg). In kind it is functional.
The species entered for assay [20] is Rattus norvegicus. Described as §1. Type of assay: functional, organism-based. This is another data set of the same source.
Assay [21] relates to Rattus norvegicus. Kind of assay: Percentage of animals emitting 50 presses on the LSD appropriate lever during the test period in rat at 0.78 mg/kg(2 uM/kg). In kind it is functional.
For assay [22], the species on record is Rattus norvegicus. The experiment in a line: Percentage of animals emitting 50 presses on the LSD appropriate lever during the test period. In kind it is functional.
The test system of assay [23] is Rattus norvegicus. The experiment in a line: Percentage of animals failing to emit 50 presses on either lever within the 15-min test period in rat at 0.365 mg/kg (1 uM/kg). In kind it is functional.
In assay [24] the test system is Rattus norvegicus. Kind of assay: Percentage of animal emitting 50 presses on the LSD appropriate lever during the test period in rat at 0.365 mg/kg (1 uM/kg). Type of assay: functional.
For assay [25], the target named is T7, 5-hydroxytryptamine receptor 2C. Kind of assay: Binding ability of compound at cloned human 5-hydroxytryptamine 2C receptor using [3H]- mesulergine as radioligand.
The test system of assay [26] is Rattus norvegicus. Kind of assay: Percentage of animals failing to emit 50 presses on either lever within the 15-min test period in rat at 5.84 mg/kg (16 uM/kg). Type of assay: functional.
Assay [27] concerns Rattus norvegicus. The experiment in a line: Percentage of animals failing to emit 50 presses on either lever within the 15-min test period in rat at 0.78 mg/kg (2 umol/kg). In kind it is functional.
In assay [28] the test system is Rattus norvegicus. The experiment in a line: Percentage of animals failing to emit 50 presses on either lever within the 15-min test period in rat at 2.92 mg/kg (8 uM/kg). Type of assay: functional.
Assay [29] concerns Rattus norvegicus. Kind of assay: Percentage of animals failing to emit 50 presses on either lever within the 15-min test period in rat at 1.46 mg/kg (4 uM/kg). In kind it is functional.
The species named for assay [30] is Rattus norvegicus. The experiment in a line: Effective dose for LSD-like behavioral effect in rats. Type of assay: functional.

Each structure is given as a SMILES string. Activity calls are given as the source filed them. The calls are words filed in the database; no cut-off is given here.

5-hydroxytryptamine receptor 2A (Rattus norvegicus, UniProt P14842), sequence (P14842 whole entry): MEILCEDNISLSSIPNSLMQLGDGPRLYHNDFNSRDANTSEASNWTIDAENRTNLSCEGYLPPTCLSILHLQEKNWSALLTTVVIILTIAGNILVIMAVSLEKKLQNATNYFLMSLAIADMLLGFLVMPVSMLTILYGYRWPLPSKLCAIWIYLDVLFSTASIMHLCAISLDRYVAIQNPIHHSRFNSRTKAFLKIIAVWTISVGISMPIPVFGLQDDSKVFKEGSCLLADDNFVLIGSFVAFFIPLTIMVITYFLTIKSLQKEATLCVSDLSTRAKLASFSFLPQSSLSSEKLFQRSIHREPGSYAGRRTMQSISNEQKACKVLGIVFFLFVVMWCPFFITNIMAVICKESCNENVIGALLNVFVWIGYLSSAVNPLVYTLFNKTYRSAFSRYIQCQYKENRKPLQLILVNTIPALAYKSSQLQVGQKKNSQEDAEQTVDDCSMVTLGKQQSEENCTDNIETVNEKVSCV
T6 sequence (P28223 whole entry): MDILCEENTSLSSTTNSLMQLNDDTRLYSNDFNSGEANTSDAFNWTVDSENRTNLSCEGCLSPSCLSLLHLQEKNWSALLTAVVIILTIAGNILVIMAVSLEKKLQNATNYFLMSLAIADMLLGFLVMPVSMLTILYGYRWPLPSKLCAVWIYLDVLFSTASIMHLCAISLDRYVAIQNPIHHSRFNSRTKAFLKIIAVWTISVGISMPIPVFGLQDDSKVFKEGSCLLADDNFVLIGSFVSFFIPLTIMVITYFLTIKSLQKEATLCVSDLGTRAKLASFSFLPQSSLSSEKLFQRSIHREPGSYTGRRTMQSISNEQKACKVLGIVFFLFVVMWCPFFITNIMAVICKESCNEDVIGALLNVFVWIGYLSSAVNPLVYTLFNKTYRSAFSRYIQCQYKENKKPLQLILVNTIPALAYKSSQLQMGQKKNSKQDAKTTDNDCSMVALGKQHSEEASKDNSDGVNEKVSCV
Muscarinic acetylcholine receptor M3 (Rattus norvegicus), sequence (P08483 whole entry, looked up): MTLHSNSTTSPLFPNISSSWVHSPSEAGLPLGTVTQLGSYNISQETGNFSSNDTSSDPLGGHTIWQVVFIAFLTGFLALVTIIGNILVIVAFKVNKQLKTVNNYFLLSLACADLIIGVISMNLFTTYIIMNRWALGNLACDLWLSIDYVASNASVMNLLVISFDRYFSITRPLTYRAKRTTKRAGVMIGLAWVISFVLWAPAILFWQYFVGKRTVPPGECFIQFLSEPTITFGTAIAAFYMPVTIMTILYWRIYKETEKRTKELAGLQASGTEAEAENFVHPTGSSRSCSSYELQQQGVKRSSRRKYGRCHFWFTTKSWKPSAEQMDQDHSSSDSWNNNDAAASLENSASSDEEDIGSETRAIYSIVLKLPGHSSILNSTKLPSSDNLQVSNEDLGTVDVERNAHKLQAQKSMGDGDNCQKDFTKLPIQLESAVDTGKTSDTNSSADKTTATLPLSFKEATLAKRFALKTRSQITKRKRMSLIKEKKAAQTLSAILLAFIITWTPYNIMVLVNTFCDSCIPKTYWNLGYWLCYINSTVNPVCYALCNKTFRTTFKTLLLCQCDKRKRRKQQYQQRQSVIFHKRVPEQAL
T8 sequence (P41595 whole entry): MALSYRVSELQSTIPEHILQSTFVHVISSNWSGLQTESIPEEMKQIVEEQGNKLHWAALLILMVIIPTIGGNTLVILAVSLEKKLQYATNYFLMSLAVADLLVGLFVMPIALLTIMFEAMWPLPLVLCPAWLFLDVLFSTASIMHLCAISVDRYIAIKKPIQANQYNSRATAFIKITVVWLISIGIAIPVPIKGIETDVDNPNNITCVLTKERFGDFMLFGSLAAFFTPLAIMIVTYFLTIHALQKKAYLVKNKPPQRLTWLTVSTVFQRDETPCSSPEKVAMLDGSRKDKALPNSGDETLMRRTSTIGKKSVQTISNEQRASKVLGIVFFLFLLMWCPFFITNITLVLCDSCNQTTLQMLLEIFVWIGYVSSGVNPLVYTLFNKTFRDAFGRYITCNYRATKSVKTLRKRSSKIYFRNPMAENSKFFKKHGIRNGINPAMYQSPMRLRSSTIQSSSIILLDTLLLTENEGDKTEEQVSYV

In the case of `COc1ccc2c3c1C[C@H](N(C)C)C[C@@H]3CO2`, the inhibition constant (Ki) in assay [1] was determined as 967 nM; in assay [5], 38 µM. For the same molecule, the K 0.5 in [2] was 654 nM; in assay [3], 953 nM; in assay [4] it was 1100 nM; in assay [6], 913 nM; in assay [7], 846 nM.
For the molecule `COc1cc(Br)c2c3c1C[C@H](N)C[C@@H]3CO2`, the Ki in assay [8] came out at 0.013 µM; in assay [11] it was 5.96 nM; in assay [12], 0.263 µM; in assay [1], 1050 nM; in [15], 255 nM; in [16], 240 nM. Also, in assay [25], the Ki is 89.6 nM. Also, the D is 0% with Rattus norvegicus [9]; 15% with Rattus norvegicus [10]; 0% in the assay on Rattus norvegicus [17]; 0% in the assay on Rattus norvegicus [18]; 0% in the assay with Rattus norvegicus [23]. The K 0.5 in [2] is 12 nM; in assay [3], 41 nM; in assay [4], 33 nM; in assay [6], 30 nM; in assay [7], 20 nM. The ED50 result in the assay listed under Rattus norvegicus [13] and in the assay filed under Rattus norvegicus [20] was “inactive” each time. Also, the SDL was found to be 44% in the assay with Rattus norvegicus [14]; 10% in the assay on Rattus norvegicus [19]; 0% in the assay on Rattus norvegicus [21]; 33% in the assay filed under Rattus norvegicus [22]; 0% with Rattus norvegicus [24].
In the case of `COc1cc(Br)c2c3c1C[C@H](N)C[C@H]3CO2`, the D in the assay with Rattus norvegicus [26] worked out at 11%; in the assay with Rattus norvegicus [27], 0%; in the assay with Rattus norvegicus [28] it was 0%; in the assay with Rattus norvegicus [29], 0%; in the assay with Rattus norvegicus [23], 0%. Further, the inhibitory constant (Ki) was 8.5 µM in assay [8], 4190 nM in assay [11], 11.2 µM in [12] and 3880 nM in assay [1]. Further, the ED50 result in the assay filed under Rattus norvegicus [13] and in the assay filed under Rattus norvegicus [20] was “inactive” in each case. Further, the SDL in the assay filed under Rattus norvegicus [22] worked out at 27%.
In the assay filed under Rattus norvegicus [30], `COc1cc(C[C@@H](C)N)c(OC)cc1Br` had an ED50 of 1.12 mg/kg. The Ki in assay [5] stood at 6.1 µM.
`COc1ccc2c3c1C[C@H](N)C[C@@H]3CO2`: the K 0.5 came to 129 nM in assay [2]; 33400 nM in [3]; 236 nM in assay [4]; 240 nM in [6]; 149 nM in assay [7].
For `CN1[C@@H]2CC[C@H]1C[C@@H](OC(=O)C(CO)c1ccccc1)C2` (some centres not stated), the K 0.5 in assay [2] was found to be 0.6 nM; in assay [3] it was 1.8 nM; in [4], 0.7 nM; in assay [6], 0.5 nM; in [7], 0.6 nM.
Turning to `CCCN(CCC)[C@H]1Cc2c(OC)ccc3c2[C@@H](CO3)C1`, the Ki in [1] turned out to be 644 nM; in assay [5] it was 144 µM.
